# Test results reported in US4547354A (priority 1983, dated 1985).
# Where two headings read alike, the source gives them in different places.
# Conditions: 95° C., 4 hours
compound,measurement,setting,value
"OO [H2 O2, hydrogen peroxide]",% Hydrogen Peroxide Recovery,"Example 1 of Table II: chlorobenzene 40.0 g, no acetone/methanol",101%
same,Hydrogen Peroxide (mmoles) Recovered,"Example 1 of Table II: chlorobenzene 40.0 g, no acetone/methanol, 93.6 mmoles in",94.1 mmol
same,% Hydrogen Peroxide Recovery,"Example 2 of Table II: chlorobenzene 40.0 g, with acetone and methanol",67%
same,Hydrogen Peroxide (mmoles) Recovered,"Example 2 of Table II: chlorobenzene 40.0 g, with acetone and methanol, 104.2 mmoles in",69.4 mmol
same,% Hydrogen Peroxide Recovery,"Example A: sulfuric acid, no chlorobenzene, no acetone/methanol",107%
same,Hydrogen Peroxide (mmoles) Recovered,"Example A: sulfuric acid, no chlorobenzene, no acetone/methanol, 104.0 mmoles in",111.7 mmol
same,% Hydrogen Peroxide Recovery,"Example B: no chlorobenzene, with acetone and methanol",3%
same,Hydrogen Peroxide (mmoles) Recovered,"Example B: no chlorobenzene, with acetone and methanol, 104.8 mmoles in",3.2 mmol
